What was measured:
Test in all cases: AlphaScreen Assay
Details in all cases: pH 8
[1] = target: TP53-binding protein 1 (Homo sapiens, UniProt Q12888)
Method: (§1) In brief, compound plates (1 μL at 10 mM highest concentration; 3-fold, 10-point dilutions in DMSO) were diluted in 1X assay buffer (20 mM TRIS pH 8.0, 25 mM NaCl, 2 mM DTT and 0.05% Tween-20) to 1 mM using a Multimek robotic pipettor (Nanoscreen), and 1 μL was spotted into the wells of 384-well low-volume Proxiplates (PerkinElmer). To these plates was added 9 μL of protein−peptide mix in a 1X assay buffer by Multidrop (Thermo) to bring the final compound concentration to 100 μM, and this was incubated for 30 min at RT. Next, 2 μL of a 1:1 mixture of streptavidin-conjugate donor and nickel-chelate acceptor beads (45μg/mL in 1X assay buffer) were added, and the plates were allowed to incubate for an additional 30 min in the dark at RT. After incubation, the plates were read on an EnVision multilabel reader equipped with an HTS AlphaScreen laser (PerkinElmer).

[2] = target: T1, Lethal(3)malignant brain tumor-like protein 3 (Homo sapiens, UniProt Q96JM7)
T1 sequence (Q96JM7 whole entry): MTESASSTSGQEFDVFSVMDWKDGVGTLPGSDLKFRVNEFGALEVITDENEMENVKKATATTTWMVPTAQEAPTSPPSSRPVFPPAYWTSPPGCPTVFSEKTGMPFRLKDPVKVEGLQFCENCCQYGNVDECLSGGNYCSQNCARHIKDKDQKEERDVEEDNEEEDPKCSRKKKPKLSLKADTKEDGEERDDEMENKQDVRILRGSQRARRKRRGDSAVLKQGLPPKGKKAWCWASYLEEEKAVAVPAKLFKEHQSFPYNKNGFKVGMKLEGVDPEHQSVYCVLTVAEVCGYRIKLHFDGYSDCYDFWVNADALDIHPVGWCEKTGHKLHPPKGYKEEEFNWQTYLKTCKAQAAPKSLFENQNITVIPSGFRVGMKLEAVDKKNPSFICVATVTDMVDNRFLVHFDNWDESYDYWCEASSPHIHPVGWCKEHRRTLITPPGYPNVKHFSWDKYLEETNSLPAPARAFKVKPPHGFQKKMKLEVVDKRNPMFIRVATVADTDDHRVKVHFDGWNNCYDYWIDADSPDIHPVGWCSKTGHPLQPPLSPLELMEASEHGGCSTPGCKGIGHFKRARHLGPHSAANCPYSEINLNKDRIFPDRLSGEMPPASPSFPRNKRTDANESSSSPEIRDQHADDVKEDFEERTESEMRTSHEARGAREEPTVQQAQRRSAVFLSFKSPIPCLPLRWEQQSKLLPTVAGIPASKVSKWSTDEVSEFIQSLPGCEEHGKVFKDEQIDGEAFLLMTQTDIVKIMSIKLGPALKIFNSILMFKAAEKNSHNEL
Method: as §1

[3] = target: T2, Isoform 4 of Lethal(3)malignant brain tumor-like protein 1 (4) (Homo sapiens, UniProt Q9Y468)
T2 sequence (Q9Y468 whole entry): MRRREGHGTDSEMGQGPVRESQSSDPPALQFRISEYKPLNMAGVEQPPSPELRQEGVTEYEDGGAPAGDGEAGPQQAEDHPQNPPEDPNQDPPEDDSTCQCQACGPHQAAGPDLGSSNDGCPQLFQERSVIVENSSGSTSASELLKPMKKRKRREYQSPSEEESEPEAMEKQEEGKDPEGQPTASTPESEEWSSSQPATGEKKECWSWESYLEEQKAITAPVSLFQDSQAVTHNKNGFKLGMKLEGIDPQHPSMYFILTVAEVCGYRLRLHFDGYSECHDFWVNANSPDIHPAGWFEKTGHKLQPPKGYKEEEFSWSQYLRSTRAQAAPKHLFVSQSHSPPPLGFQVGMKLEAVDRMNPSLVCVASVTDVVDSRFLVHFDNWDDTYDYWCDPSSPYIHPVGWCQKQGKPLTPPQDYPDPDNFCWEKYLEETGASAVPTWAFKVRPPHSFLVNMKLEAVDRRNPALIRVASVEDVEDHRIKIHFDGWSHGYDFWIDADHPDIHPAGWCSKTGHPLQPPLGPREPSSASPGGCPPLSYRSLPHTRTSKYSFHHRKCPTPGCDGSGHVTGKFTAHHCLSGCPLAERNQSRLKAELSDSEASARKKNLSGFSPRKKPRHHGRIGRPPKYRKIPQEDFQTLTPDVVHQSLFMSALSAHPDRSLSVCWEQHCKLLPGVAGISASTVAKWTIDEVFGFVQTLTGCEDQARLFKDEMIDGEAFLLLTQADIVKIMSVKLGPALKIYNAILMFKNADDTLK
Method: as §1

[4] = target: PHD finger protein 23 (Homo sapiens, UniProt Q9BUL5)
Method: as §1

[5] = target: T3, E3 ubiquitin-protein ligase UHRF1 (Homo sapiens, UniProt Q96T88)
T3 sequence (Q96T88 whole entry): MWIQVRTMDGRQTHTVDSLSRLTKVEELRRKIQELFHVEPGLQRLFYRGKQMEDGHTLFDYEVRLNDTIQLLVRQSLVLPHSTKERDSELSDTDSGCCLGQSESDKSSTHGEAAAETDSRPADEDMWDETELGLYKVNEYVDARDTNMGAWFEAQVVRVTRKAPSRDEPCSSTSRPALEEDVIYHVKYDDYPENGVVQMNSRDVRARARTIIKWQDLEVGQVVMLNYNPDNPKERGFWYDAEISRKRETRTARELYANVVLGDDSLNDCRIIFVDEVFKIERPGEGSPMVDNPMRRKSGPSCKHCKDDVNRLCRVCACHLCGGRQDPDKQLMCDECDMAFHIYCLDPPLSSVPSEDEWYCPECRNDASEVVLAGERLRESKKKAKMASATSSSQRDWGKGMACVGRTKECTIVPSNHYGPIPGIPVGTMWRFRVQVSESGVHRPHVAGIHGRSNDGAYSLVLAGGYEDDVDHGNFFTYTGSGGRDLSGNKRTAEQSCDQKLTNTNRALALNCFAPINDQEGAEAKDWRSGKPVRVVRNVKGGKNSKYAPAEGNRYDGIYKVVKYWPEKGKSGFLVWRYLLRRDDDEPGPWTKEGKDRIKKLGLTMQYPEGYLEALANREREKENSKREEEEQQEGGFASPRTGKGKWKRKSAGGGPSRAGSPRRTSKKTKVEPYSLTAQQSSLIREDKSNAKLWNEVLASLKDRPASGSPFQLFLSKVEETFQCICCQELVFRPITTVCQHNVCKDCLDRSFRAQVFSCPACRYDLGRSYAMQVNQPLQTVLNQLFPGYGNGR
Method: as §1

[6] = target: MBT domain-containing protein 1 (Homo sapiens, UniProt Q05BQ5)
Method: as §1

Measured: IC50

Sequence of TP53-binding protein 1 (Q12888 whole entry): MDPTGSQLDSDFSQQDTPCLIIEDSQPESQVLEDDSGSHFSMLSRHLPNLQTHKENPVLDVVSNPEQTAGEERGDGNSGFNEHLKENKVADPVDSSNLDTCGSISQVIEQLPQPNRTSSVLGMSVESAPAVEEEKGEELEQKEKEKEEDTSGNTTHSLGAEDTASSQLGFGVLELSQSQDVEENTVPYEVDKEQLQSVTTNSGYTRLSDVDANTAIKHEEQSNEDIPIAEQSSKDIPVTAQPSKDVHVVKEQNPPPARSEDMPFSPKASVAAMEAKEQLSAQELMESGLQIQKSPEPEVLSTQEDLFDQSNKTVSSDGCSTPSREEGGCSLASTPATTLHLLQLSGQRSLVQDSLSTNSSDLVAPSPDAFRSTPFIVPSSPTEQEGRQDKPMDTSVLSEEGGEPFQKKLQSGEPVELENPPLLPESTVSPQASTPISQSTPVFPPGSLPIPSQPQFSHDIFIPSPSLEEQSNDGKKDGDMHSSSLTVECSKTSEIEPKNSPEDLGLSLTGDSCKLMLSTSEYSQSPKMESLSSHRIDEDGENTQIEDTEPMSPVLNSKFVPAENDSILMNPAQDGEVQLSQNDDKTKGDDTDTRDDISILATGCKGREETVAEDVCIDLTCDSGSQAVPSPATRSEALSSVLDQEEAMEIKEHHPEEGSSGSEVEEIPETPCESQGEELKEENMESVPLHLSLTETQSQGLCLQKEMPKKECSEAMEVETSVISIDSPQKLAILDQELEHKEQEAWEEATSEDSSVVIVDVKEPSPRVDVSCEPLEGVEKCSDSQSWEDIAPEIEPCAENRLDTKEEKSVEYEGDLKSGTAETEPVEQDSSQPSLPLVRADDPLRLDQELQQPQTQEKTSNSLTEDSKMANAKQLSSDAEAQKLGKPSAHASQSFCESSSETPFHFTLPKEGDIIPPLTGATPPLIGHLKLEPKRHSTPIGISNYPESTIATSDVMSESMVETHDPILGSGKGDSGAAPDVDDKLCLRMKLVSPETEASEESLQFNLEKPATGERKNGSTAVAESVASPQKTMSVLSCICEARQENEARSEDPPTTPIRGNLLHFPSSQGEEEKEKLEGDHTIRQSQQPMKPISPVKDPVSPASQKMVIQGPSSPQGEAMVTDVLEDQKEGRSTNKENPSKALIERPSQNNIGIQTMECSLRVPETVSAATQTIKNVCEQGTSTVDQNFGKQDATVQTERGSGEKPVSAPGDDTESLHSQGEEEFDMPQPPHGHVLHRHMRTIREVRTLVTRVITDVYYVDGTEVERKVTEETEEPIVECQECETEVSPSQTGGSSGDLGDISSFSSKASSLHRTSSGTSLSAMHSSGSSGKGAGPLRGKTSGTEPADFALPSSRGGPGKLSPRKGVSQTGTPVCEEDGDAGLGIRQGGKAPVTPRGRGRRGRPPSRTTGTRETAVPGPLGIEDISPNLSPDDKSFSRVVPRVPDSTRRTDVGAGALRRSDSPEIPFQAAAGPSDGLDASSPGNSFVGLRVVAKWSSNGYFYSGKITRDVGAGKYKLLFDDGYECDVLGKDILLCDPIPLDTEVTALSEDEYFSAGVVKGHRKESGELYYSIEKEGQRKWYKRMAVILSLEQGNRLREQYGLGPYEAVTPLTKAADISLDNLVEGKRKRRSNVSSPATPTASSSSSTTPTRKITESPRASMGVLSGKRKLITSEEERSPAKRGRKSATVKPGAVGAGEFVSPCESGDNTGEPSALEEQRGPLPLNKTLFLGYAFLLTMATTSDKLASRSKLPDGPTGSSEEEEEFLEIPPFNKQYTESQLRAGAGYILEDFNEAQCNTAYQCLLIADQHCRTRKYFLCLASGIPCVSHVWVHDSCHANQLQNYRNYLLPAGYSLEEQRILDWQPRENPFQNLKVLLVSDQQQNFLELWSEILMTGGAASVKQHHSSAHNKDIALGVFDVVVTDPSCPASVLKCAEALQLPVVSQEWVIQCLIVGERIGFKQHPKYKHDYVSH
Sequence of MBT domain-containing protein 1 (Q05BQ5 whole entry, the tested form may be a part): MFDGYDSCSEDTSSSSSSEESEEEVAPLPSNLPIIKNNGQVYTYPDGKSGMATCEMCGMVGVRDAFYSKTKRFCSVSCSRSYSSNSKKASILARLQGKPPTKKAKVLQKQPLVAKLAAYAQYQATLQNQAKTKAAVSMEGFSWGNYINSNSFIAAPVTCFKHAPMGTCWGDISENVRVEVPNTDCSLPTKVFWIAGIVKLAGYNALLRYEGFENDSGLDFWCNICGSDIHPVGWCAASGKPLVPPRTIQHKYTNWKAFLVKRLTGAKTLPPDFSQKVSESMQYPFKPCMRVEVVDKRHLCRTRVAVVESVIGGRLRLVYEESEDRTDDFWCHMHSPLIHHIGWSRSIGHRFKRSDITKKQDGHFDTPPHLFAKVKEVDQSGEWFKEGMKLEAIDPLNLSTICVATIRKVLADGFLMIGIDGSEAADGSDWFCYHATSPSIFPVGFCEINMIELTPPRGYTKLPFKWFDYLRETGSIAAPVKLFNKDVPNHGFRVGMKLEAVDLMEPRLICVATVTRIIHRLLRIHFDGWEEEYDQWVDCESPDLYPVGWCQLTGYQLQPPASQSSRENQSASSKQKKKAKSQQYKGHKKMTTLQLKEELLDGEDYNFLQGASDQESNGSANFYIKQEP
Sequence of PHD finger protein 23 (Q9BUL5 whole entry): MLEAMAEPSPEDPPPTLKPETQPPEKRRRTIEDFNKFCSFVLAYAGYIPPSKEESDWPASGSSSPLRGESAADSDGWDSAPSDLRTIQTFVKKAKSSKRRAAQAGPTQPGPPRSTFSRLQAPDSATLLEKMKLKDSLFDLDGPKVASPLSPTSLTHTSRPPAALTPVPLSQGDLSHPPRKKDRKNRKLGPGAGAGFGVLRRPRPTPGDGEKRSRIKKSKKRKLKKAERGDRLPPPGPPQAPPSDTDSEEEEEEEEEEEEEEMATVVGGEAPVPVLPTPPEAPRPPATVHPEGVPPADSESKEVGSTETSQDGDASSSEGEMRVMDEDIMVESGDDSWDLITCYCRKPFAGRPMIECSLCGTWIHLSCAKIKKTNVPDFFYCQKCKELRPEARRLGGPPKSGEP

CC(C)(C)NCCCCCNC(=O)c1cccc(Br)c1 [3-Bromo-N-(5-(tert-butylamino)pentyl)benzamide (12)]
> 100 µM: [1] | [2] | [3] | [4] | [5] | [6]

CC(C)(C)NCCCNC(=O)c1ccccc1Br [2-Bromo-N-(3-(tert-butylamino)propyl)benzamide (16)]
> 100 µM: [1] | [2] | [3] | [4] | [5] | [6]

CC(C)(C)NCCCNC(=O)c1ccc(Br)cc1 [4-Bromo-N-(3-(tert-butylamino)propyl)benzamide (15)]
> 100 µM: [1] | [2] | [3] | [4] | [5] | [6]

CC(C)(C)NCCCNC(=O)c1cc(Br)ccn1 [4-Bromo-N-(3-(tert-butylamino)propyl)picolinamide (24)]
> 100 µM: [1] | [2] | [3] | [4] | [5] | [6]

CC(C)(C)NCCCNC(=O)c1cc(C(F)(F)F)ccn1 [N-(3-(Tert-butylamino)propyl)-4-(trifluoromethyl)picolinamide (25)]
> 100 µM: [1] | [2] | [3] | [4] | [5] | [6]

CC(C)(C)N1CCN(C(=O)c2cccc(Br)c2)CC1 [(3-Bromophenyl)(4-(tert-butyl)piperazin-1-yl)methanone (10)]
> 100 µM: [1] | [2] | [3] | [4] | [5] | [6]

CC(C)(C)NCCCCNC(=O)c1cccc(Br)c1 [3-Bromo-N-(4-(tert-butylamino)butyl)benzamide (11)]
> 100 µM: [1] | [2] | [3] | [4] | [5] | [6]

Reference: BindingDB's records for doi:10.1021/cb500956g (University of North Carolina At Chapel Hill, 2015)
